Measured values: ChEMBL document CHEMBL1201862, “PubChem BioAssay data set” (2004)
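Interpolation was linear, between the two tested concentrations surrounding the appropriate level; five concentrations were tested over 48 hours in 96-well plates. GI50: concentration for 50% inhibition of growth.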 Active and inactive are the calls of the source. No stated cut-off is given here; in the data, active = GI50 up to about 1.1 µM and inactive = higher.

Columns and labels:
Test in all cases: DTP human tumour cell line panel, 48 h
CAKI-1 = test system: CAKI-1
SK-MEL-28 = test system: SK-MEL-28
OVCAR-5 = test system: OVCAR-5
EKVX = test system: EKVX
IGROV-1 = test system: IGROV-1
SK-MEL-5 = test system: SK-MEL-5
786-0 = test system: 786-0
MDA-MB-231 = test system: MDA-MB-231
A498 = test system: A498
DU-145 = test system: DU-145
COLO 205 = test system: COLO 205
SF-268 = test system: SF-268
NCI-H226 = test system: NCI-H226
SN12C = test system: SN12C
HCT-15 = test system: HCT-15
K562 = test system: K562
SNB-75 = test system: SNB-75
NCI/ADR-RES = test system: NCI/ADR-RES
A549 = test system: A549

| Compound | GI50 (CAKI-1) | GI50 (SK-MEL-28) | GI50 (OVCAR-5) | GI50 (EKVX) | GI50 (IGROV-1) | GI50 (SK-MEL-5) | GI50 (786-0) | GI50 (MDA-MB-231) | GI50 (A498) | GI50 (DU-145) | GI50 (COLO 205) | GI50 (SF-268) | GI50 (NCI-H226) | GI50 (SN12C) | GI50 (HCT-15) [µM] | GI50 (K562) | GI50 (SNB-75) | GI50 (NCI/ADR-RES) | GI50 (A549) |
| --- | --- | --- | --- | --- | --- | --- | --- | --- | --- | --- | --- | --- | --- | --- | --- | --- | --- | --- | --- |
| [N-]=[N+]=CC(=O)OCCCCl | > 100 µM (inactive) | > 100 µM (inactive) | > 100 µM (inactive) | > 100 µM (inactive) | > 100 µM (inactive) | > 100 µM (inactive) | > 100 µM (inactive) | > 100 µM (inactive) | > 100 µM (inactive) | > 100 µM (inactive) | > 100 µM (inactive) | > 100 µM (inactive) | > 100 µM (inactive) | > 100 µM (inactive) | > 100 |  |  |  |  |
| CC1/C(=N/O)CC(c2ccccc2)N(N=O)C1c1ccccc1 (stereo not drawn) | > 100 µM (inactive) | > 100 µM (inactive) |  | > 100 µM (inactive) | > 100 µM (inactive) | > 100 µM (inactive) | > 100 µM (inactive) | > 100 µM (inactive) |  | > 100 µM (inactive) | > 100 µM (inactive) | > 100 µM (inactive) | > 100 µM (inactive) | > 100 µM (inactive) | > 100 | > 100 µM (inactive) | 91.4 µM (inactive) | > 100 µM (inactive) | > 100 µM (inactive) |
| Cn1c(S)nc2c(Cl)cc(Cl)cc2c1=O | 67.9 µM (inactive) | > 100 µM (inactive) | > 100 µM (inactive) | > 100 µM (inactive) | 80.5 µM (inactive) | 99.5 µM (inactive) | > 100 µM (inactive) | > 100 µM (inactive) |  | > 100 µM (inactive) | > 100 µM (inactive) | > 100 µM (inactive) |  | > 100 µM (inactive) | > 100 |  | 55.3 µM (inactive) | > 100 µM (inactive) | > 100 µM (inactive) |
| Nc1nc2cc(Cl)ccc2n1N | > 100 µM (inactive) | > 100 µM (inactive) | > 100 µM (inactive) | > 100 µM (inactive) | > 100 µM (inactive) | > 100 µM (inactive) | > 100 µM (inactive) | > 100 µM (inactive) | > 100 µM (inactive) | > 100 µM (inactive) | > 100 µM (inactive) | > 100 µM (inactive) | > 100 µM (inactive) | > 100 µM (inactive) | > 100 | > 100 µM (inactive) | > 100 µM (inactive) |  | > 100 µM (inactive) |
| C=C1CC(C#N)(C#N)[C@@H]2CC3CCCC3[C@H]12.C=C1CC(C#N)(C#N)[C@H]2C3CCCC3C[C@@H]12 (stereo partly drawn) |  | 21.2 µM (inactive) | 10 µM (inactive) | 24.2 µM (inactive) | 27.9 µM (inactive) | 24.7 µM (inactive) | 10.5 µM (inactive) | 22 µM (inactive) | 19.7 µM (inactive) | 38.4 µM (inactive) |  | 23.3 µM (inactive) | 25.3 µM (inactive) | 15.7 µM (inactive) | 15.9 | 16.8 µM (inactive) |  | 23.9 µM (inactive) | 10 µM (inactive) |
| OCCOCCN1CCN(c2nc(N3CCCC3)c3nc(Cl)c(NCc4ccccc4)nc3n2)CC1 | 16 µM (inactive) | 14.4 µM (inactive) | 15.1 µM (inactive) | 13.6 µM (inactive) | 18.3 µM (inactive) | 5.55 µM (inactive) | 13 µM (inactive) | 16.9 µM (inactive) |  | 11.9 µM (inactive) | 7.35 µM (inactive) | 16.5 µM (inactive) | 20.8 µM (inactive) | 15.6 µM (inactive) | 4.27 | 3.94 µM (inactive) | 21 µM (inactive) | 14.5 µM (inactive) | 13 µM (inactive) |
| COc1ccc(/C=C(\C#N)c2nc(-c3cc4ccccc4oc3=O)cs2)cc1 | 76 µM (inactive) | 27.5 µM (inactive) | 51.1 µM (inactive) | 35 µM (inactive) | 22.2 µM (inactive) | 22.1 µM (inactive) | 19.3 µM (inactive) | 14.8 µM (inactive) |  | 65.2 µM (inactive) | 50.6 µM (inactive) | 17.9 µM (inactive) | 31.6 µM (inactive) | 23.8 µM (inactive) | 51.6 | 58.5 µM (inactive) | 23.2 µM (inactive) | 27.2 µM (inactive) | 32.3 µM (inactive) |
| CCCCCCCCCCCCCCCCCCNC(=S)N/C=C1/C(=O)C=C(C)OC1=O | 23.4 µM (inactive) | 32.4 µM (inactive) | 18.4 µM (inactive) | 20.6 µM (inactive) | 16.9 µM (inactive) | 29.6 µM (inactive) | 29.6 µM (inactive) | 33 µM (inactive) |  | 24.9 µM (inactive) | 27.7 µM (inactive) |  | 32.9 µM (inactive) | 37.8 µM (inactive) | 15.7 |  | 14.3 µM (inactive) | 28.6 µM (inactive) | 25.9 µM (inactive) |
| Cc1n[nH]c(C(F)(F)F)c1/N=N/N(C)C | 1.64 µM (inactive) | 17.9 µM (inactive) |  | 2.25 µM (inactive) |  | > 100 µM (inactive) | 1.24 µM (inactive) | 11.8 µM (inactive) | > 100 µM (inactive) | 7.69 µM (inactive) | 2.98 µM (inactive) | 11.4 µM (inactive) | 1.95 µM (inactive) | 12.5 µM (inactive) | 7.26 | 2.93 µM (inactive) |  | 7.13 µM (inactive) | 18.4 µM (inactive) |
| Cc1ccc([N+](=O)[O-])cc1S(=O)(=O)Nc1ccc(C(=O)/C=C/c2ccccc2)cc1 | 22.2 µM (inactive) | 23.4 µM (inactive) | 25.6 µM (inactive) | 18 µM (inactive) | 18.7 µM (inactive) | 16.3 µM (inactive) | 16.7 µM (inactive) | 16.9 µM (inactive) |  | 15.8 µM (inactive) | 20.6 µM (inactive) | 24.3 µM (inactive) | 28.6 µM (inactive) | 19.8 µM (inactive) | 19.5 | 4.79 µM (inactive) | 17.3 µM (inactive) | 22 µM (inactive) | 23.3 µM (inactive) |
| Nc1ccc(C(=O)Nn2c(-c3ccccc3)nc3ccccc3c2=O)cc1 |  | > 100 µM (inactive) | > 100 µM (inactive) | > 100 µM (inactive) | > 100 µM (inactive) | > 100 µM (inactive) | > 100 µM (inactive) | > 100 µM (inactive) | 32.3 µM (inactive) | > 100 µM (inactive) | > 100 µM (inactive) | > 100 µM (inactive) | > 100 µM (inactive) | > 100 µM (inactive) |  | > 100 µM (inactive) | 89.7 µM (inactive) |  | > 100 µM (inactive) |
| Cc1ccc(NC(=O)c2cc3cc(/N=N/c4ccc(Br)cc4)ccc3oc2=O)cc1 | 30.5 µM (inactive) | > 100 µM (inactive) | > 100 µM (inactive) |  |  | > 100 µM (inactive) | > 100 µM (inactive) |  | 46.3 µM (inactive) |  | > 100 µM (inactive) | 28.2 µM (inactive) | > 100 µM (inactive) | > 100 µM (inactive) | 46 |  | > 100 µM (inactive) |  | > 100 µM (inactive) |
| COc1cc(N(CCC#N)CCC#N)ccc1C(/N=N/c1ccccc1C)=N\NC(=O)c1ccc(C)cc1 | > 100 µM (inactive) | > 100 µM (inactive) | > 100 µM (inactive) | 28.4 µM (inactive) | 75 µM (inactive) | > 100 µM (inactive) | 36.6 µM (inactive) | 25.5 µM (inactive) |  | > 100 µM (inactive) | 33.7 µM (inactive) | 64.4 µM (inactive) | > 100 µM (inactive) | 44.1 µM (inactive) | > 100 | 29.8 µM (inactive) |  | > 100 µM (inactive) | 59.6 µM (inactive) |
| CCOC(=O)CCC(NC(=O)c1ccc(/N=C/c2nc3ccccc3nc2-c2ccccc2)cc1)C(=O)OCC (stereo not drawn) | > 100 µM (inactive) | > 100 µM (inactive) | > 100 µM (inactive) | > 100 µM (inactive) | > 100 µM (inactive) | > 100 µM (inactive) | > 100 µM (inactive) |  | > 100 µM (inactive) |  | > 100 µM (inactive) | > 100 µM (inactive) | > 100 µM (inactive) | 79.1 µM (inactive) | > 100 | > 100 µM (inactive) | 20 µM (inactive) |  | > 100 µM (inactive) |
| CC1C(c2ccc(Cl)cc2)c2cc3c(cc2OC1N1CCOCC1)OCO3 (stereo not drawn) | 31.8 µM (inactive) | > 100 µM (inactive) | > 100 µM (inactive) | > 100 µM (inactive) | > 100 µM (inactive) | 51.3 µM (inactive) | 56.8 µM (inactive) |  |  | > 100 µM (inactive) | > 100 µM (inactive) | > 100 µM (inactive) |  | > 100 µM (inactive) | > 100 | > 100 µM (inactive) | 44.1 µM (inactive) | > 100 µM (inactive) | 75.7 µM (inactive) |
| CCOCN1COCN/C1=N/C#N | > 100 µM (inactive) | > 100 µM (inactive) | > 100 µM (inactive) | > 100 µM (inactive) | > 100 µM (inactive) | > 100 µM (inactive) | > 100 µM (inactive) |  | > 100 µM (inactive) |  | 28.3 µM (inactive) | > 100 µM (inactive) | > 100 µM (inactive) | > 100 µM (inactive) | 58.5 | > 100 µM (inactive) | > 100 µM (inactive) |  | 31.8 µM (inactive) |
| N#Cc1nn(-c2ccc(Cl)cc2)c(=N)c2c(N)n3nc(-c4ccccc4)cc3nc12 | 1 µM (active) | 1 µM (active) | 1 µM (active) | 1 µM (active) | 0.546 µM (active) | 0.809 µM (active) | 38.5 µM (inactive) |  | 1 µM (active) |  | 1 µM (active) | 0.635 µM (active) | 39.7 µM (inactive) | 1 µM (active) | 1 | 1 µM (active) | 1 µM (active) |  | 1 µM (active) |
